One assay has as its target T1, full length human TREX1 (Homo sapiens, UniProt Q9NSU2).
T1 construct: N-terminally His-Tev tagged full length human TREX1; made in house; host or cells: E. coli
T1 sequence (Q9NSU2 1-314): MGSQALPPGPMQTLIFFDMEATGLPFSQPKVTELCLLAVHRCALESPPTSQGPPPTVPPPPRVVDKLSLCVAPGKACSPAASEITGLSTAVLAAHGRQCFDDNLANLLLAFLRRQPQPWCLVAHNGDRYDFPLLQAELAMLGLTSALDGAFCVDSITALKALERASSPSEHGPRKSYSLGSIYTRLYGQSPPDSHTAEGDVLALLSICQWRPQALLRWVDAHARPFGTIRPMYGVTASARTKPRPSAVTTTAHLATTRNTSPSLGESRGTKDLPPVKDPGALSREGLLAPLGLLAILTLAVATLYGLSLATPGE
As to the kind of experiment: hTREX1 Biochemical Assay (fluorescence, dsDNA substrate degradation). Particulars: biochemical, read-out: hTREX1 IC50. The essentials:
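Fluorescence rises as enzyme degrades a quenched TEX615-labelled dsDNA substrate (60 nM) in 50 mM Tris, 150 mM NaCl, 5 mM MgCl2, pH 7.4. Full-length His-Tev-tagged human TREX1, 4 pM, sits with compound 4 hours at 25° C before substrate; reaction 18 hours, stopped with EDTA.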

A further assay has as its target T2, full length mouse TREX1 (Mus musculus, UniProt Q91XB0).
T2 construct: N-terminally His-Tev tagged full length mouse TREX1; made in house; host or cells: E. coli
T2 sequence (Q91XB0 1-314): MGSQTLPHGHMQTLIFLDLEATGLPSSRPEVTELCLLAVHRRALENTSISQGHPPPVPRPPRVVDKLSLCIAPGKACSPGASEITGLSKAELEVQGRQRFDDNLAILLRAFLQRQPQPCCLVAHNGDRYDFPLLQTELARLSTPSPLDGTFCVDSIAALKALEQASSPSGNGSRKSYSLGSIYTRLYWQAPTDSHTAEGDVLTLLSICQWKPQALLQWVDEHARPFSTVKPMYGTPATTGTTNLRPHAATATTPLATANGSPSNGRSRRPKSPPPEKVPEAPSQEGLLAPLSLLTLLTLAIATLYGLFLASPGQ
As to the kind of experiment: mTREX1 Biochemical Assay (fluorescence, dsDNA substrate degradation). Particulars: biochemical, read-out: mTREX1 IC50. The essentials:
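Reaction run 18 h at 25° C. with 60 nM TEX615/quencher-labelled dsDNA and 6 pM mouse TREX1 in Tris buffer (pH 7.4, 5 mM MgCl2, 1.0% DMSO), enzyme having sat 4 h with compound across 10 concentrations. EDTA quench; substrate degradation measured as fluorescence increase.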

Where only a bound is given, the exact number is not on record here.

With `CC(c1nc(C(=O)Nc2cnoc2)c(O)c(=O)n1C)C(c1cnn(CCN(C)C)c1)c1ccccc1C#N` (single isomer, unassigned) [Example 33 D1E2], the IC50 on full length human TREX1 and at full length mouse TREX1 was more than 10 nM in each case.

On to `CC(c1nc(C(=O)Nc2cnoc2)c(O)c(=O)n1C)C(c1cnn(CCN(C)C)c1)c1ccccc1C#N` (single isomer, unassigned) [Example 33 D2E1], for which the 50% inhibitory concentration (IC50) at full length human TREX1 and on full length mouse TREX1 was more than 10 nM throughout.

`CC(c1nc(C(=O)Nc2cnoc2)c(O)c(=O)n1C)C(c1cnn(CCN(C)C)c1)c1ccccc1C#N` (single isomer, unassigned) [Example 33 D2E2]: the IC50 at full length human TREX1 and on full length mouse TREX1 was more than 10 nM in each case.

For `CC(c1nc(C(=O)Nc2cnoc2)c(O)c(=O)n1C)C(c1cnn(CCCN(C)C)c1)c1ccccc1C#N` (single isomer, unassigned) [Example 34 D1E2], the IC50 on full length human TREX1 and at full length mouse TREX1 was more than 10 nM in each case.

Regarding `CC(c1nc(C(=O)Nc2cnoc2)c(O)c(=O)n1C)C(c1cnn(CCCN(C)C)c1)c1ccccc1C#N` (single isomer, unassigned) [Example 34 D2E2], the concentration for half-maximal inhibition (IC50) at full length human TREX1 and on full length mouse TREX1 was more than 10 nM each time.

As to `CC(c1nc(C(=O)Nc2cnoc2)c(O)c(=O)n1C)C(c1cnn(CCO)c1)c1ccccc1C#N` (single isomer, unassigned) [Example 35 D1E2], the IC50 on full length human TREX1 and on full length mouse TREX1 was more than 10 nM throughout.

With `CC(c1nc(C(=O)Nc2cnoc2)c(O)c(=O)n1C)C(c1cnn(CCO)c1)c1ccccc1C#N` (single isomer, unassigned) [Example 35 D2E1], the concentration for half-maximal inhibition (IC50) on full length human TREX1 was 1 to 10 nM; at full length mouse TREX1, more than 10 nM.

As for `CC(c1nc(C(=O)Nc2cnoc2)c(O)c(=O)n1C)C(c1cnn(CCO)c1)c1ccccc1C#N` (single isomer, unassigned) [Example 35 D2E2], the IC50 at full length human TREX1 and at full length mouse TREX1 was more than 10 nM in each case.

With `CC(c1nc(C(=O)Nc2cnoc2)c(O)c(=O)n1C)C(c1cnn(CC(C)(C)O)c1)c1ccccc1C#N` (single isomer, unassigned) [Example 36 D1E2], the half-inhibitory concentration (IC50) on full length human TREX1 and on full length mouse TREX1 was more than 10 nM in each case.

Consider `CC(c1nc(C(=O)Nc2cnoc2)c(O)c(=O)n1C)C(c1cnn(CC(C)(C)O)c1)c1ccccc1C#N` (single isomer, unassigned) [Example 36 D2E2], for which the IC50 on full length human TREX1 and at full length mouse TREX1 was more than 10 nM each time.

With `COC(C)(C)Cn1cc(C(c2ccccc2C#N)C(C)c2nc(C(=O)Nc3cnoc3)c(O)c(=O)n2C)cn1` (single isomer, unassigned) [Example 37 D1E2], the half-maximal inhibitory concentration (IC50) at full length human TREX1 and on full length mouse TREX1 was more than 10 nM throughout.

Regarding `COC(C)(C)Cn1cc(C(c2ccccc2C#N)C(C)c2nc(C(=O)Nc3cnoc3)c(O)c(=O)n2C)cn1` (single isomer, unassigned) [Example 37 D2E1], the IC50 on full length human TREX1 and at full length mouse TREX1 was more than 10 nM throughout.

As for `CC(c1nc(C(=O)Nc2cnoc2)c(O)c(=O)n1C)C(c1cnn(C(F)F)c1)c1ccccc1C#N` (single isomer, unassigned) [Example 38 D1E2], the IC50 at full length human TREX1 and at full length mouse TREX1 was more than 10 nM in each case.

As to `CC(c1nc(C(=O)Nc2cnoc2)c(O)c(=O)n1C)C(c1cnn(C(F)F)c1)c1ccccc1C#N` (single isomer, unassigned) [Example 38 D2E1], the half-inhibitory concentration (IC50) on full length human TREX1 and at full length mouse TREX1 was more than 10 nM in each case.

As for `CC(c1nc(C(=O)Nc2cnoc2)c(O)c(=O)n1C)C(c1cn(C)cn1)c1ccccc1C#N` (single isomer, unassigned) [Example 39 D1E1], the IC50 at full length human TREX1 and on full length mouse TREX1 was more than 10 nM throughout.

Consider `CC(c1nc(C(=O)Nc2cnoc2)c(O)c(=O)n1C)C(c1cn(C)cn1)c1ccccc1C#N` (single isomer, unassigned) [Example 39 D1E2], for which the half-maximal inhibitory concentration (IC50) at full length human TREX1 and at full length mouse TREX1 was more than 10 nM in each case.

`CC(c1nc(C(=O)Nc2cnoc2)c(O)c(=O)n1C)C(c1cn(C)cn1)c1ccccc1C#N` (single isomer, unassigned) [Example 39 D2E1]: the IC50 at full length human TREX1 and on full length mouse TREX1 was more than 10 nM each time.

Take `Cn1cc(C(c2ccccc2C#N)C(c2nc(C(=O)Nc3cnoc3)c(O)c(=O)n2C)C(F)(F)F)cn1` (single isomer, unassigned) [Example 40 D1E1]: the half-inhibitory concentration (IC50) at full length human TREX1 and on full length mouse TREX1 was more than 10 nM in each case.

As to `Cn1cc(C(c2ccccc2C#N)C(c2nc(C(=O)Nc3cnoc3)c(O)c(=O)n2C)C(F)(F)F)cn1` (single isomer, unassigned) [Example 40 D2E1], the IC50 at full length human TREX1 and at full length mouse TREX1 was more than 10 nM each time.

As for `Cc1nn(C)cc1C(c1ccccc1C#N)C(c1nc(C(=O)Nc2cnoc2)c(O)c(=O)n1C)C(F)(F)F` (single isomer, unassigned) [Example 41 D1E1], the half-maximal inhibitory concentration (IC50) at full length human TREX1 and at full length mouse TREX1 was more than 10 nM throughout.

Consider `Cc1nn(C)cc1C(c1ccccc1C#N)C(c1nc(C(=O)Nc2cnoc2)c(O)c(=O)n1C)C(F)(F)F` (single isomer, unassigned) [Example 41 D2E1], for which the results for the IC50 on full length human TREX1 and on full length mouse TREX1 were 1 to 10 nM and more than 10 nM, respectively.

With `Cc1nn(C)cc1C(c1ccccc1C#N)C(c1nc(C(=O)Nc2cnoc2)c(O)c(=O)n1C)C(F)(F)F` (single isomer, unassigned) [Example 41 D2E2], the IC50 on full length human TREX1 and at full length mouse TREX1 was more than 10 nM in each case.

In the case of `Cc1nn(C)cc1C(c1cc(F)ccc1C#N)C(c1nc(C(=O)Nc2cnoc2)c(O)c(=O)n1C)C(F)(F)F` (single isomer, unassigned) [Example 42 D1E1], the IC50 at full length human TREX1 and at full length mouse TREX1 was more than 10 nM each time.

As for `Cc1nn(C)cc1C(c1cc(F)ccc1C#N)C(c1nc(C(=O)Nc2cnoc2)c(O)c(=O)n1C)C(F)(F)F` (single isomer, unassigned) [Example 42 D2E2], the half-inhibitory concentration (IC50) at full length human TREX1 and at full length mouse TREX1 was more than 10 nM each time.

Regarding `Cc1ncc(C(c2ccccc2Cl)C(C)c2nc(C(=O)Nc3cnoc3)c(O)c(=O)n2C)cn1` (single isomer, unassigned) [Example 44 D2E1], the IC50 on full length human TREX1 and on full length mouse TREX1 was more than 10 nM throughout.

Consider `Cc1ccn(C(c2ccccc2Cl)C(C)c2nc(C(=O)Nc3cnoc3)c(O)c(=O)n2C)n1` (single isomer, unassigned) [Example 49 D1E1], for which the half-inhibitory concentration (IC50) on full length human TREX1 and at full length mouse TREX1 was 1 to 10 nM each time.

For the compound `Cc1ccn(C(c2ccccc2Cl)C(C)c2nc(C(=O)Nc3cnoc3)c(O)c(=O)n2C)n1` (single isomer, unassigned) [Example 49 D1E2], the IC50 at full length human TREX1 and at full length mouse TREX1 was more than 10 nM in each case.

Turning to `CC(c1nc(C(=O)Nc2cnoc2)c(O)c(=O)n1C)C(c1cocn1)c1ccccc1C#N` (single isomer, unassigned) [Example 50 D1E2], the IC50 on full length human TREX1 and on full length mouse TREX1 was more than 10 nM in each case.

Turning to `CC(c1nc(C(=O)Nc2cnoc2)c(O)c(=O)n1C)C(c1cocn1)c1ccccc1C#N` (single isomer, unassigned) [Example 50 D2E2], the IC50 at full length human TREX1 and at full length mouse TREX1 was more than 10 nM throughout.

For `CC(c1nc(C(=O)Nc2cnoc2)c(O)c(=O)n1C)C(c1ncn(C)n1)c1ccccc1C#N` (single isomer, unassigned) [Example 51 D1E1], the IC50 at full length human TREX1 and at full length mouse TREX1 was more than 10 nM each time.

As for `CC(c1nc(C(=O)Nc2cnoc2)c(O)c(=O)n1C)C(c1ncn(C)n1)c1ccccc1C#N` (single isomer, unassigned) [Example 51 D2E1], the 50% inhibitory concentration (IC50) at full length human TREX1 and on full length mouse TREX1 was more than 10 nM throughout.

For `CC(c1nc(C(=O)Nc2cnoc2)c(O)c(=O)n1C)C(c1ncn(C)n1)c1ccccc1C#N` (single isomer, unassigned) [Example 51 D2E2], the half-maximal inhibitory concentration (IC50) at full length human TREX1 and on full length mouse TREX1 was more than 10 nM in each case.

In the case of `CC(c1nc(C(=O)Nc2cnoc2)c(O)c(=O)n1C)C(c1ccccc1C#N)c1c(C#N)cnn1C` (single isomer, unassigned) [Example 52 D1E2], the IC50 at full length human TREX1 and at full length mouse TREX1 was more than 10 nM throughout.

With `CC(c1nc(C(=O)Nc2cnoc2)c(O)c(=O)n1C)C(c1ccccc1C#N)c1c(C#N)cnn1C` (single isomer, unassigned) [Example 52 D2E2], the IC50 on full length human TREX1 and on full length mouse TREX1 was more than 10 nM each time.

`Cc1cncc(C(c2ccccc2C#N)C(C)c2nc(C(=O)Nc3cnoc3)c(O)c(=O)n2C)n1` (single isomer, unassigned) [Example 53 D1E1]: the IC50 on full length human TREX1 and at full length mouse TREX1 was more than 10 nM in each case.

With `Cc1cncc(C(c2ccccc2C#N)C(C)c2nc(C(=O)Nc3cnoc3)c(O)c(=O)n2C)n1` (single isomer, unassigned) [Example 53 D2E1], the IC50 on full length human TREX1 and at full length mouse TREX1 was more than 10 nM throughout.

Usually IC50 stands for the point on the concentration scale where inhibition reaches its midpoint.
